# Test results published in patent publication US12083113B2, “Use of neuronal nitric oxide synthase inhibitors for immunotherapy in melanoma patients” (Northwestern University, priority 2018, dated 2024).
# B1: IFN-γ: Interferon-gamma, purchased from Invitrogen (protein, UniProt P01579 24-161, looked up)
# Interferon gamma: QDPYVKEAENLKKYFNAGHSDVADNGTLFLGILKNWKEESDRKIMQSQIVSFYFKLFKNFKDDQSIQKSVETIKEDMNVKFFNSNKKKRDDFEKLTNYSVTDLNVQRKAIHELIQVMAELSPAAKTGKRKRSQMLFRG
# Experiments:
# [1] = test system: human melanoma cell lines (A375, Sk-Mel-28, wm3211); test: Cytotoxicity by MTT colorimetric analysis in human melanoma cell lines; assay type: cell-based; settings: read-out: Cytotoxicity (IC50 from 3 melanoma cell lines)
# Method: Table 1. […] All the NOS isozymes used were recombinant enzymes overexpressed in E. coli. Ki values are calculated directly using known literature methods and detailed in co-PI R. Silverman's published manuscripts (17, 18, 64, 85). Cytotoxic effects of nNOS inhibitors in human melanoma were detected by MTT colorimetric analysis (85). The IC50 values are the average of at least two human melanoma cell lines.
# [2] = test system: A375 human melanoma xenograft; test: A375 melanoma xenograft, HH044 20 mg/kg (Example 2)
# PD-L1 in A375 cells = test: PD-L1 expression by immunofluorescence staining; assay type: cell-based, human; settings: for extracellular expression of PD-L1: interferon alone, 250 Units/ml
# Method: FIG. 5. Expression of PD-L1 in metastatic melanoma A375 cells detected by immunofluorescence staining. […]. Cells were then fixed and permeabilized with 4% formaldehyde and methanol. Samples were blocked in blocking buffer containing 5% horse serum for 1 hour. The slides were then allowed to incubate in a 1:50 PD-L1 antibody dilution overnight at 4° C. and DAPI reagent for 1 hour. Representative images are shown stained with PD-L1 antibody (green) and DAPI (blue fluorescence). (Original magnifications, 100×). Representative images for 2 experimental replicates are shown.
# Expression levels of PD-L1 detected by Immunofluorescence. A375 cells were plated on coverslips and incubated with 250 units/mL of IFN-α or IFN-γ in the presence or absence of […] of nNOS inhibitors for 72 hours. After treatment, cells on coverslips were fixed with 4% formaldehyde/PBS for 15 minutes at room temperature, followed by incubation with ice-cold 100% methanol for 10 minutes at −20° C. Samples were then incubated in blocking buffer (1×PBS, 5% horse serum, 0.3% Triton X-100) for 60 minutes, then in a 1:50 PD-L1 antibody dilution in dilution buffer (1×PBS, 1% BSA, 0.3% Triton X-100) overnight at 4° C. Stained specimens were rinsed with PBS then cured in the dark with DAPI fluorescence staining reagent for 1 hour. Slides were visualized and recorded using the BZ-X700 microscope (Keyence, Itasca, IL).
# [3] = test system: Human A375 metastatic melanoma xenograft; test: A375 melanoma xenograft, IFN-γ with or without MAC-3-190; assay type: in vivo, nude mice; settings: for PD-L1-positive staining in xenograft tumors (immunohistochemistry): 21-day treatment, IFN-γ 1000 units per mouse i.p. daily, with or without MAC-3-190 5 mg/kg/day
# Method: FIG. 6. […] Data was represented as mean±SD.
# FIG. 7. Expression of PD-L1 in xenograft tumor samples obtained from the subject is administered an inhibitor of NOS and further is administered study detected by immunohistochemistry staining. PD-L1 staining (brown) of specimens at 100× (A) and 20× (B) magnification. […] . PD-L1 (C) and CD8 (D) stained specimens captured at 2× magnification.
# In Vivo Xenograft Melanoma. […] .
# [4] = test system: PD-L1 in A375 melanoma cells; test: Cell surface PD-L1 expression by flow cytometry; assay type: cell-based, human; settings: for MFI of PD-L1 staining obtained via flow cytometry: IFN-γ alone or with MAC-3-190 (3 μM), 72-hour treatment; for cell surface expression of PD-L1: interferon alone, three cell lines
# Method: FIG. 4. […] Three melanoma cell lines were treated with 250 units/mL of interferons for 48 hours. Whole cell lysates were collected and subjected to RPPA assay. […] Red, high expression; green, low expression. All the data points were normalized for protein loading and transformed to linear value. […] Cell surface expression of PD-L1 was determined by flow cytometry. Representative histograms out of two independent experimental replicates are shown. C) IFN-α or IFN-γ (100 Units/ml); D-E) IFN-α or IFN-γ (250 Units/ml).
# Expression levels of PD-L1 detected by Flow Cytometry.
# A375 cells = test: Cytotoxicity in A375 cells; assay type: cell-based, human
# Sk-mel-28 cells = test: Cytotoxicity in Sk-mel-28 cells; assay type: cell-based, human
# STAT1 = test: Western blot of STAT1 in A375 cells; assay type: cell-based, human; settings: interferon alone
# Method: (§1) FIG. 3. […] A375 cells were treated with 100 units/mL and 250 units/mL of IFN-γ or IFN-α for 24 hours; whole cell lysates and nuclear extracts were used for Western blot analysis to detect STAT3 and pSTAT3 respectively. […] Protein isolation and Western blotting. All samples were kept at 4° C. unless otherwise noted.
# (§2) The membranes were blocked using 10% non-fat milk (NOS1, STAT1/2, Actin, Lamin A/C) or 5% bovine serum albumin (BSA; SH3057402; Fisher Scientific, Waltham, MA) (p-STAT1/3), then incubated with primary antibodies for 1 hour at room temperature or overnight at 4° C., followed by secondary antibodies for 1 hour at room temperature as recommended by the manufacturer. Blots were washed extensively with TBS-T after each antibody incubation.
# [5] = test system: intracellular NO in melanoma cells; test: Intracellular nitric oxide levels, DAF-FM fluorescence probe; assay type: cell-based, human; settings: DAF-FM probe after interferon exposure
# Method: (§3) FIG. 2. A-C) Effects of IFN-α and IFN-γ treatment on nNOS expression levels in human primary melanoma WM3211 cells (A-B) and metastatic melanoma A375 cells. C) Distinct effects of IFN-α and IFN-γ on nNOS expression of A375 metastatic melanoma cells. A375 cells were treated with 500 units/mL of IFN-α or IFN-γ for 48 hours and whole cell lysates were collected. Samples were subjected to Western blot analysis for nNOS. A control of the protein loading was performed by detecting actin. D) Intracellular nitric oxide levels detected by microplate reader using DAF-FM fluorescence probe after IFN-α or IFN-γ treatment for 24 hours. E) IFN-γ-inducible nNOS expression was abrogated in nNOS-depleted melanoma cells. A375 cells transfected with shRNA-nNOS were treated with IFN-γ for 24 hours, followed by Western blot analysis.
# Detection of intracellular nitric oxide levels. Cultured cells in a 96-well plate were treated with 100 units/mL of IFN-α or IFN-γ for 48 hours. Once the incubation period was complete, the media was removed and replaced with Hank's Balanced Salt Solution (HBSS). 1 μM of 4-Amino-5-methylamino-2′,7′-difluorofluorescein (DAF-FM) probe was added to each condition and fluorescence levels produced by DAF-FM were detected using a fluorescence microplate reader with excitation and emission wavelengths of 485 and 538 nm, respectively.
# [6] = test system: nNOS expression in WM3211 cells; test: Western blot of nNOS expression in primary melanoma WM3211 cells; assay type: cell-based, human; settings: IFN-γ persisted after 96 hours, IFN-α within 4 hours, recovered by 24 hours
# Method: as §3
# Protein isolation and Western blotting. All samples were kept at 4° C. unless otherwise noted. […]
# Equal amounts of protein, as detected by Bradford assay, were loaded and resolved on 7.5% SDS-polyacrylamide gels, then transferred to Immobilon-P^SQ polyvinylidene difluoride (PVDF) membranes (ISEQ00010; Merck KGaA, Darmstadt, Germany). […] Labeled bands were detected using SuperSignal horseradish peroxidase chemiluminescence reagents (1859674; 1859675; Thermo Fisher Scientific, Waltham, MA) and images were captured and analyzed using the Bio-Rad ChemiDoc XRS^+ System.
# [7] = test system: WM115, Sk-mel-28 and A375; test: Reverse Phase Protein Array in three human melanoma cell lines; assay type: cell-based; settings: 250 units/mL interferon; for PD-L1 expression level (RPPA): average of three cell lines
# Method: FIG. 4. A) Heat map of Reverse Phase Protein Array (RPPA) showing distinct effects of IFN-α and IFN-γ on protein expression levels in three human melanoma cell lines (WM115, Sk-mel-28 and A375). Three melanoma cell lines were treated with 250 units/mL of interferons for 48 hours. Whole cell lysates were collected and subjected to RPPA assay. […] Red, high expression; green, low expression. All the data points were normalized for protein loading and transformed to linear value. […] Average changes of three cell lines detected by RPPA were shown in the figure. *, p<0.05 in comparison to control and IFN-α. C-E) Induction of PD-L1 by IFN-γ was diminished by the co-treatment of nNOS inhibitors. […]. Cell surface expression of PD-L1 was determined by flow cytometry. Representative histograms out of two independent experimental replicates are shown. C) IFN-α or IFN-γ (100 Units/ml); D-E) IFN-α or IFN-γ (250 Units/ml).
# Reverse Phase Protein Array. Plated cells were treated with 250 units/mL of IFN-α or IFN-γ for […]. After washing with 1×PBS, lysis buffer (1% Triton X-100, 50 mM HEPES, pH 7.4, 150 mM NaCl, 1.5 mM MgCl2, 1 mM EGTA, 100 mM NaF, 10 mM Na pyrophosphate, 1 mM Na3VO4, 10% glycerol and 1% PIC) was added to the plates, followed by incubation on ice for 20 minutes with occasional shaking. Samples were then collected via scraping and spun down at 14,000 g^−1 for 10 minutes at 4° C. The protein concentration was then quantified by Bradford method and adjusted to 1.5 μg/μL with lysis buffer. Cell lysates were then mixed with 4×SDS sample buffer (40% glycerol, 8% SDS, 0.25M Tris-HCl, pH 6.8 with 10% BME). Miniscule amounts of serially diluted protein samples were then dotted on a nitrocellulose coated slide and probed with validated primary antibodies and a biotin-conjugated secondary antibody. The signals were amplified using Dako-Cytomation-Catalyzed system (Dako) and visualized by diaminobenzidine (DAB) colorimetric reaction. Dilution curves were fitted with Supercurve Fitting and the protein expressions normalized for protein loading.
# STAT3 = test: Western blot of STAT3 and phospho-STAT3 in A375 cells; assay type: cell-based, human; settings: A375 cells exposed to interferon, 24 hours
# Method: as §1
# Nuclear and cytosolic protein extraction is described elsewhere (84). Cells were collected via centrifugation and re-suspended in buffer A (10 mM HEPES, pH 7.9, 10 mM KCl, 0.150 mM MgCl2, 0.5 mM DTT, 0.2 mM PMSF) with 1% PIC and allowed to swell for 10 minutes. 10% NP-40 was added and vortexed to lyse the cells. […] Buffer D (20 mM HEPES, 20% glycerol, 50 mM KCl, 0.5 mM EDTA, 0.5 mM DTT, and 0.2 mM PMSF) was then added to dilute the nuclear sample.
# as §2
# A375 melanoma cells = test: Adhesion of melanoma cells to fibroblast monolayer; assay type: cell-based, human; settings: incubated 1 hour, MTT assay
# Method: (§4) FIG. 1. A) Effect of IFN-γ on melanoma invasion potential detected by matrigel invasion assay. The represented data were from A375 metastatic melanoma cells treated with IFN-γ. *, p<0.05 compared to control. B) Adhesion analysis. A375 melanoma cells were seeded on top of fibroblast monolayer and incubated with IFN-γ for 1 hour, followed by MTT assay. *, p<0.05 compared to control.
# [8] = test system: A375 metastatic melanoma cells; test: Matrigel invasion assay; assay type: cell-based, human; settings: compared to control, p<0.05
# Method: as §4
molecule,measurement,setting,value
N=C(Nc1ccc(CCNCc2cccc(NC(=N)c3cccs3)c2)cc1)c1cccs1 [HH044],IC50,[1],5.27 ± 3.3 µM
same,"lung, liver, and kidney weights",[2]; 20 mg/kg/day for 21 days,no significant changes
same,body weight,"[2]; 20 mg/kg/day for 21 days, 23.9 g in control group",22.6 g
same,reduction in body weight,"[2]; 20 mg/kg/day, not statistically significant (p>0.05)",< 10%
CNCc1cccc(CCc2ccc3c(C)cc(N)nc3c2)c1 [MAC-3-190],IFN-γ-inducible PD-L1 expression,"PD-L1 in A375 cells; co-treatment with 3 μM, IFN-γ 250 Units/ml, 72 hours",significantly diminished
same,basal level of PD-L1,"PD-L1 in A375 cells; treatment with inhibitor alone, compared to control",did not alter
same,PD-L1 expression in xenograft tumors,[3]; 10 mg/kg/day,significantly reduced
same,PD-L1-positive staining in xenograft tumors (immunohistochemistry),[3],> 15%
same,"induction in tumor volume by IFN-γ, end of study","[3]; co-treatment, 5 mg/kg subcutaneously injected daily, p<0.05 compared to IFN-γ treatment",effectively diminished
same,MFI of PD-L1 staining obtained via flow cytometry,[4]; A375 cells,1.9 folds of control
same,"Induction of PD-L1 by IFN-γ, cell surface expression","[4]; A375 cells, co-treatment with nNOS inhibitor 3 μM, 72 hours",diminished
N.N.[Cl][Pt][Cl] [cisplatin],IC50,A375 cells,4.2 µM
same,IC50,Sk-mel-28 cells,14.3 µM
IFN-α,extracellular expression of PD-L1,PD-L1 in A375 cells; 72 hours,low basal expression
same,expression of STAT1,STAT1,increase
same,intracellular NO levels,[5],significantly decreased
same,nNOS expression levels,[6],undetectable levels
same,PD-L1 expression level (RPPA),[7],absent
same,cell surface expression of PD-L1,[4],reduced
B1,extracellular expression of PD-L1,PD-L1 in A375 cells; 72 hours,markedly induced
same,expression of STAT1,STAT1,higher induction
same,Phospho-STAT3 levels,STAT3,1.9 folds of control
same,expression levels of STAT3,STAT3,1.6 folds of control
same,intracellular NO levels,[5],elevated
same,adhesion capacity of melanoma cells to fibroblast cells,A375 melanoma cells,significantly enhanced
same,nNOS expression levels,[6],markedly induced
same,PD-L1-positive staining in xenograft tumors (immunohistochemistry),[3],> 20%
same,tumor growth in vivo,"[3]; IFN-γ 1000 units/day, 21 days",significantly stimulated
same,melanoma invasion potential,[8],significantly enhanced
same,c-Myc and HIF-1α expression levels (RPPA),[7],Increased
same,PD-L1 expression level (RPPA),[7],1.8 fold of control
same,MFI of PD-L1 staining obtained via flow cytometry,[4]; A375 cells,3.3 folds of control
same,cell surface expression of PD-L1,[4],increased
